# In the supplement of paper PMC4862054:
# Experiments:
# Settings in all cases: incubation time: 72 h
# [1] = test system: MDA-MB-231; test: normalised response (% of control), CellTox Green; higher = less cell death (100 = DMSO, 0 = benzethonium chloride kill control)
# How it was run: (§1)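 After 72 h with compound in 384-well plates, breast cancer cell lines seeded as 20 µl suspension were read for CellTox Green fluorescence at 485/520 nm. CellTiter-Glo luminescence was then read after 10 min at room temperature. Compound was present at 5 concentrations in 10-fold steps over a 10,000-fold range set per compound, and plates were normalised to 0.1 % DMSO (100) and a positive kill control (0). Values are normalised signals, each at a single concentration.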
# [2] = test system: HCC1599; test: as above
# How it was run: as §1
# [3] = test system: CAL-51; test: as above
# How it was run: as §1
# [4] = test system: MCF-10A; test: as above
# How it was run: as §1
# [5] = test system: MDA-MB-453; test: as above
# How it was run: as §1
# [6] = test system: BT-549; test: as above
# How it was run: as §1
# [7] = test system: CAL-120; test: as above
# How it was run: as §1
# [8] = test system: CAL-85-1; test: as above
# How it was run: as §1
# [9] = test system: HCC1937; test: as above
# How it was run: as §1
# [10] = test system: MFM-223; test: as above
# How it was run: as §1
# [11] = test system: MDA-MB-468; test: as above
# How it was run: as §1
# [12] = test system: BT-474; test: as above
# How it was run: as §1
# [13] = test system: DU-4475; test: as above
# How it was run: as §1
# [14] = test system: HDQ-P1; test: as above
# How it was run: as §1
# [15] = test system: HCC1143; test: as above
# How it was run: as §1
# [16] = test system: Hs578T; test: as above
# How it was run: as §1
# [17] = test system: MDA-MB-436; test: as above
# How it was run: as §1
# [18] = test system: CAL-148; test: as above
# How it was run: as §1
# [19] = test system: MDA-MB-231; test: normalised response (% of control), CellTiter-Glo; higher = more viable cells (100 = DMSO, 0 = benzethonium chloride kill control)
# How it was run: as §1
# [20] = test system: HCC1599; test: as above
# How it was run: as §1
# [21] = test system: CAL-51; test: as above
# How it was run: as §1
# [22] = test system: MCF-10A; test: as above
# How it was run: as §1
# [23] = test system: MDA-MB-453; test: as above
# How it was run: as §1
# [24] = test system: SK-BR-3; test: as above
# How it was run: as §1
# [25] = test system: BT-549; test: as above
# How it was run: as §1
# [26] = test system: CAL-120; test: as above
# How it was run: as §1
# [27] = test system: CAL-85-1; test: as above
# How it was run: as §1
# [28] = test system: HCC1937; test: as above
# How it was run: as §1
# [29] = test system: MFM-223; test: as above
# How it was run: as §1
# [30] = test system: MDA-MB-468; test: as above
# How it was run: as §1
# [31] = test system: BT-474; test: as above
# How it was run: as §1
# [32] = test system: DU-4475; test: as above
# How it was run: as §1
# [33] = test system: HDQ-P1; test: as above
# How it was run: as §1
# [34] = test system: HCC1143; test: as above
# How it was run: as §1
# [35] = test system: Hs578T; test: as above
# How it was run: as §1
# [36] = test system: MDA-MB-436; test: as above
# How it was run: as §1
# [37] = test system: CAL-148; test: as above
# How it was run: as §1
SMILES,normalised response [1],normalised response [2],normalised response [3],normalised response [4],normalised response [5],normalised response [6],normalised response [7],normalised response [8],normalised response [9],normalised response [10],normalised response [11],normalised response [12],normalised response [13],normalised response [14],normalised response [15],normalised response [16],normalised response [17],normalised response [18],normalised response [19],normalised response [20],normalised response [21],normalised response [22],normalised response [23],normalised response [24],normalised response [25],normalised response [26],normalised response [27],normalised response [28],normalised response [29],normalised response [30],normalised response [31],normalised response [32],normalised response [33],normalised response [34],normalised response [35],normalised response [36],normalised response [37]
CN(C)/N=N/c1[nH]cnc1C(N)=O [Dacarbazine] (100 nM),101%,101%,110%,107%,99.6%,96.7%,101%,105%,106%,105%,85.4%,101%,102%,105%,82.8%,79.5%,100%,106%,107%,92%,101%,100%,103%,107%,115%,101%,106%,102%,105%,100%,96.8%,105%,98.5%,112%,103%,102%,105%
Cc1ccc(-n2nc(C(C)(C)C)cc2NC(=O)Nc2ccc(OCCN3CCOCC3)c3ccccc23)cc1 [Doramapimod] (100 nM),82.1%,97.4%,101%,93.5%,98.1%,77.5%,95.8%,85.4%,97%,99.4%,89%,94.5%,97.7%,101%,104%,105%,98.5%,100%,96.5%,93.7%,99.5%,85.3%,99.4%,90.8%,106%,99.4%,92.4%,89.9%,91.8%,89.6%,94.2%,93.7%,93%,97.1%,98.7%,100%,79.7%
N#CCNC(=O)c1ccc(-c2ccnc(Nc3ccc(N4CCOCC4)cc3)n2)cc1 [Momelotinib] (100 nM),53.8%,89.7%,83%,66.3%,101%,104%,98.2%,102%,94.6%,81.4%,168%,100%,97.5%,102%,78.1%,93.5%,104%,97.8%,94.8%,112%,70.4%,85.6%,110%,95.9%,102%,97.2%,101%,97.8%,94.8%,90%,92.1%,95.9%,105%,117%,102%,99.1%,94.1%
N[C@@H](CSC(c1ccccc1)(c1ccccc1)c1ccccc1)C(=O)O [S-trityl-L-cysteine] (400 nM),104%,101%,110%,109%,102%,71.8%,97.1%,99.5%,61.4%,102%,125%,94.5%,97.9%,109%,111%,79.2%,72.6%,80.7%,101%,112%,105%,92.4%,104%,93.5%,100%,104%,102%,98.2%,103%,105%,102%,101%,99%,102%,97.3%,98.9%,102%
CC(=O)Nc1ccc(C(=O)Nc2ccccc2N)cc1 [Tacedinaline] (10 nM),108%,99.9%,83.3%,104%,89.7%,85.9%,98.8%,105%,97.9%,97.2%,133%,96.6%,101%,104%,96.9%,106%,80.4%,95%,98.5%,104%,86.8%,101%,107%,95.3%,102%,102%,103%,94.8%,101%,104%,101%,99.6%,96.1%,99.7%,90.1%,96.9%,105%
O=C1CCC(N2C(=O)c3ccccc3C2=O)C(=O)N1 (stereo unspecified) [Thalidomide] (100 nM),106%,96.6%,103%,109%,104%,106%,98.8%,107%,87.4%,99.8%,127%,102%,101%,95.2%,103%,94.8%,97.9%,79.1%,95.6%,99.6%,100%,98.9%,101%,97.7%,98.3%,95.2%,95.6%,98.1%,95.7%,93.6%,103%,102%,105%,95.9%,94.5%,101%,97.4%
CN[C@@H]1C[C@H]2O[C@@](C)([C@@H]1OC)n1c3ccccc3c3c4c(c5c6ccccc6n2c5c31)C(=O)N[C@H]4O [UCN-01] (100 nM),40.7%,85.5%,56.1%,75.5%,90.4%,62.6%,88.8%,54.8%,92.9%,80.2%,76.9%,80.8%,91.2%,50.5%,84.4%,55%,77.1%,86%,25%,14.1%,39%,24%,62.4%,39.4%,52.1%,37%,44.2%,54.4%,70.9%,48.2%,33.1%,77.8%,68.3%,63.1%,19.5%,52%,109%
CCC1=C[C@@H]2CN(C1)Cc1c([nH]c3ccccc13)[C@@](C(=O)OC)(c1cc3c(cc1OC)N(C)[C@H]1[C@@](O)(C(=O)OC)[C@H](OC(C)=O)[C@]4(CC)C=CCN5CC[C@]31[C@@H]54)C2 [Vinorelbine] (100 nM),71.5%,90.6%,28.6%,-12.8%,83.8%,80.3%,84.8%,51.3%,88.4%,59.8%,29.7%,76.3%,101%,93.5%,85.7%,49.2%,90.9%,67.3%,74.9%,62.8%,68.2%,59.5%,59.7%,10.4%,31.6%,58.1%,31.1%,71.4%,59.8%,21%,70.2%,91.7%,75.8%,45.6%,48.1%,38.8%,42.8%
